Data reported in paper PMC7764606 (Cancers, 2020).
pIC50: −log10 of the molar value.

Columns and labels:
recombinant AKR1B10 = tested on: T1, recombinant AKR1B10; experiment: Reduction of Dau by recombinant AKR1B10 (UHPLC detection of Dau-ol); format: biochemical, Human; conditions: Dau 500 µM, relative to DMSO
T1 construct: made in house; host or cells: Escherichia coli
Method: Human recombinant CREs (CBR1, AKR1A1, 1B1, 1B10, 7A2, and 1C3) were produced by an Escherichia coli expression system as per methods described previously. For the inhibitory assay, each recombinant enzyme, CBR1 (1 µg), AKR1A1 (1 µg), AKR1B1 (5 µg), AKR1B10 (5 µg), AKR7A2 (3 µg), or AKR1C3 (1.5 µg) was incubated with BTK inhibitors at different concentrations (10 and 50 µM) and the substrate Dau (500 µM). For analysis using the Lineweaver-Burk plot, 1.5 µg of recombinant AKR1C3 was incubated with DMSO or BTK inhibitors (1, 5, and 10 µM) and Dau (200, 400, 600, 800, 1000, and 2000 µM). […] The incubations and further metabolite detection were further performed by using ultra-high-performance liquid chromatography (UHPLC) as per methods described previously.

[1] = tested on: T2, AKR1C3 in HCT116-C3 cells; experiment: Dau metabolism to Dau-ol in HCT116 cells transiently overexpressing AKR1C3; format: cell-based, human; conditions: 5 h
T2 construct: expressed in transfected cells; host or cells: HCT116
Method: (§1) HCT116 cells were seeded (1.25 × 10^5 cells/well) in 24-well plates and cultured for 24 h. For the transient expression of the recombinant human AKR1C3, the cells were transfected with a pCI_AKR1C3 or empty pCI plasmid as control (previously described in a study by Hofman et al.) according to the manufacturer’s instructions (jetPRIME® Transfection Reagent; Polyplus Transfection®, Illkirch, France). For each 24-well plate, a mixture of 0.75 µL of the jetPRIME® Transfection Reagent and 0.25 µg of plasmid was incubated for 10 min at room temperature. Then, polyplexes were added to the HCT116 cells with 0.5 mL of fresh DMEM supplemented with 10% FBS and incubated for 24 h (37 °C, 5% CO2). The expression of recombinant AKR1C3 was verified by western blotting as per methods described previously.
(§2) After transfection of HCT116 cells or seeding of A549 cells (25 × 10^3 cells/well) in 24-well plates for 24 h, the medium was harvested and replaced with DMEM supplemented with 10% FBS containing 1 µM daunorubicin, with or without increasing concentrations (1, 5, and 10 μM) of BTK inhibitors. Cells were incubated (37 °C, 5% CO2) for 2.5 and 5 h (transfected HCT116) or only 5 h (A549). Then, the medium was collected and the cells were lysed in lysis buffer (25 mM Tris, 150 mM NaCl, and 1% Triton X-100, pH 7.8) for 15 min at room temperature. The collected medium was combined with cell lysate for further extraction and analysis of metabolites, as per methods described previously.

A549 cells = experiment: Intracellular metabolism of Dau in A549 cells; format: cell-based, human; conditions: 5 h
Method: as §2

HCT116-C3 cells = experiment: MTT cell viability, HCT116-C3 cells (incl. Chou-Talalay analysis); format: cell-based, human
Method: as §1
The synergistic effect of BTK inhibitors on Dau cytotoxicity was evaluated in transfected HCT116 and A549 cells by IC50 determination. Twenty-four hours prior to the experiment, transfected HCT116 cells (8 × 10^3 cells/well) or A549 cells (5 × 10^3 cells/well) were seeded in 96-well plates. The cell culture medium was replaced with fresh medium containing increasing amounts of Dau (final concentrations: 0.01, 0.05, 0.1, 0.25, 0.5, 0.75, 1, and 10 µM) with or without BTK inhibitors (final concentrations: 1, 5, and 10 µM). After 72 h of incubation under standard conditions (37 °C, 5% CO2), cell viability was assessed by MTT (Sigma-Aldrich, Prague, Czech Republic) assay. For this, 50 µL of the MTT solution (3 mg/mL) was added to each well and incubated for 30 min. The supernatant was collected, and the cell monolayers were dissolved in 100 µL of DMSO. The absorbance was measured at 570 and 690 nm by a microplate reader Infinite M200 (Tecan, Salzburg, Austria), and the background values at 690 nm were subtracted from the absorbance obtained at 570 nm. The half-maximal inhibitory concentrations (IC50) were calculated using GraphPad Prism 8.1.2. The drug combination pharmacodynamics were determined by the Chou-Talalay method using the CompuSyn ver. 3.0.1 software (ComboSyn Inc., Paramus, NJ, USA).

[2] = HCT116-C3, BTK-inhibitor 5 µM + Dau 0.25 µM
[3] = HCT116-C3, BTK-inhibitor 10 µM + Dau 0.25 µM

CC#CC(=O)N1CCC[C@H]1c1nc(-c2ccc(C(=O)Nc3ccccn3)cc2)c2c(N)nccn12 [Acalabrutinib, acalabrutinib]
inhibition of AKR1B10 activity (Dau reduction) (recombinant AKR1B10; 10 µM BTK inhibitor): did not show significant inhibition
inhibition of AKR1B10 activity (Dau reduction) (recombinant AKR1B10; 50 µM BTK inhibitor): 9.36% ± 2.53%
decrease in AKR1C3 activity (Dau to Dau-ol) ([1]; 1 µM BTK inhibitor + 1 µM Dau): 31.96% ± 13.51%
decrease in AKR1C3 activity (Dau to Dau-ol) ([1]; 5 µM BTK inhibitor + 1 µM Dau): 67.15% ± 10.35%
decrease in AKR1C3 activity (Dau to Dau-ol) ([1]; 10 µM BTK inhibitor + 1 µM Dau): 65.56% ± 1.53%
reduction of intracellular metabolism of Dau (A549 cells; 1 µM BTK inhibitor + 1 µM Dau): 12.13% ± 5.19%
reduction of intracellular metabolism of Dau (A549 cells; 5 µM BTK inhibitor + 1 µM Dau): 34.32% ± 7.09%
reduction of intracellular metabolism of Dau (A549 cells; 10 µM BTK inhibitor + 1 µM Dau): 44.24% ± 9.06%
Dose reduction index for Dau (HCT116-C3 cells; [2]): 1.38 ± 0.37
Fraction affected (Fa %) (HCT116-C3 cells; [2]): 34.59 ± 5.75%
Fraction affected (Fa %) (HCT116-C3 cells; HCT116-C3, BTK-inhibitor 5 µM + Dau 0.50 µM): 68.43 ± 1.41%
Fraction affected (Fa %) (HCT116-C3 cells; HCT116-C3, BTK-inhibitor 5 µM + Dau 0.75 µM): 79.88 ± 0.40%
Fraction affected (Fa %) (HCT116-C3 cells; HCT116-C3, BTK-inhibitor 5 µM + Dau 1.00 µM): 86.61 ± 1.29%
Dose reduction index for Dau (HCT116-C3 cells; [3]): 1.77 ± 0.75
Fraction affected (Fa %) (HCT116-C3 cells; [3]): 40.91 ± 11.4%
Fraction affected (Fa %) (HCT116-C3 cells; HCT116-C3, BTK-inhibitor 10 µM + Dau 0.50 µM): 77.47 ± 0.69%
Fraction affected (Fa %) (HCT116-C3 cells; HCT116-C3, BTK-inhibitor 10 µM + Dau 0.75 µM): 87.59 ± 1.02%
Fraction affected (Fa %) (HCT116-C3 cells; HCT116-C3, BTK-inhibitor 10 µM + Dau 1.00 µM): 91.62 ± 0.29%
pIC50 (HCT116-C3 cells; Homo sapiens, HCT116-C3, 72 h MTT, read-out: IC50 of BTK inhibitor alone (cell viability)): 4.49
relative resistance (RR) (HCT116-C3 cells; IC50 in HCT116-C3 divided by IC50 in HCT116-EV): 0.97
